Paper PMC7503933, “Benzyl Furanones and Pyrones from the Marine-Derived Fungus Aspergillus terreus Induced by Chemical Epigenetic Modification” (Molecules, 2020)

Target: T1, PTP1B (Homo sapiens, UniProt P18031)
T1 construct: gene PTPN1; human recombinant (Abcam ab51277)
T1 sequence (P18031 1-435): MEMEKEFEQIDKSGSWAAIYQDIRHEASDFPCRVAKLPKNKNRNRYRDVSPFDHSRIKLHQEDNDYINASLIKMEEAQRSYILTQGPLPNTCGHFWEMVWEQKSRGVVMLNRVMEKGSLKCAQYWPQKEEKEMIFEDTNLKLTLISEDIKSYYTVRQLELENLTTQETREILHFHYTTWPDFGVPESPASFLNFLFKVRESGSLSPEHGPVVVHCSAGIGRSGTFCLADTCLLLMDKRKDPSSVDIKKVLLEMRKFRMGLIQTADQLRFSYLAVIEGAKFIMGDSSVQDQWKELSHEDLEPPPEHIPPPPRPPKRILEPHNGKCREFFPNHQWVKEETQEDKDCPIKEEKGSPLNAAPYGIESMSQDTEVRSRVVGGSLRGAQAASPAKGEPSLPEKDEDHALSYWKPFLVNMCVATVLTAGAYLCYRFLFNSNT
Assay: recombinant PTP1B pNPP hydrolysis assay, absorbance […] nm
Type: biochemical

Row | SMILES | IC50
1 | COc1cc(O)cc(C)c1C[C@@]1(C(N)=O)OC(C)=CC1=O | 17.3 µM
2 | COc1cc(O)cc(C)c1CC1(C(N)=O)OC(C)=CC1=O (racemic) [(±)-1, Asperfuranone (1)] | 45.8 µM
3 | COc1cc(O)cc(C)c1C[C@]1(C(N)=O)OC(C)=CC1=O [(−)-1, (−)-asperfuranone] | 35.5 µM
4 | COc1cc(O)cc(C)c1Cc1c(O)cc(C)oc1=O [compound 2, asperpyranone A] | 42.3 µM
